Literature values in patent US20260283953A1, “FORMULATIONS OF PHOSPHOLIPID CARRIER COMPLEXES” (priority 2024, published 2026).
Read-outs that look alike come from different tables or passages of the source.

Assays:
[1] = in vivo
[2] = natural testosterone
[3] = for testosterone levels: oral 60 mg dose

## COc1cc(/C=C/C(=O)CC(=O)/C=C/c2ccc(O)c(OC)c2)ccc1O [curcumin]
[1]
  bioavailability: low bioavailability

## O=C(/C=C/C=C/c1ccc2c(c1)OCO2)N1CCCCC1 [Piperine, (2E,4E)-5-(2H-1,3-Benzodioxol-5-yl)-1-(piperidin-1-yl)penta-2,4-dien-1-one]
other
  solubility in water: dissolves poorly in water

## C[C@]12CC[C@H]3[C@@H](CCC4=CC(=O)CC[C@@]43C)[C@@H]1CC[C@@H]2O [testosterone, 17β-Hydroxyandrost-4-en-3-one]
[2]
  half-life: under 1 hour
[3]; first pass through the intestines and liver
  absorption and metabolism with oral delivery: well-absorbed but extensively metabolized
[3]; men, doses of less than 200 mg
  inactivation after oral delivery: rapidly and completely inactivated
[3]; men
  testosterone levels: no effect
[3]; men with liver cirrhosis
  testosterone levels: High levels
[3]; prepubertal boys and women
  testosterone levels: measurably increase
[3]; oral, large doses such as 200 mg
  circulating testosterone levels: significant increases
[3]; young women, single 25 mg dose
  oral bioavailability: 3.6±2.5%
